For assay [1], the target named is T1, β5 subunit of the human constitutive proteasome (CPS) (Homo sapiens, UniProt P28074).
T1 construct: purchased Boston Biochem E-360
Briefly: β5 inhibition assay, human constitutive proteasome (Suc-LLVY-AMC). To be noted: IC50 class, Suc-LLVY-AMC substrate. Type of assay: biochemical. The procedure:
The enzymatic activity of the β5 subunit of the human constitutive proteasome (CPS) is analyzed. In another assay, which differs from the assay of the human constitutive proteasome only in using the human immunoproteasome (IPS) the enzymatic activity of the β5 subunit of the human immunoproteasome (IPS) is analyzed. […] Inhibition is indicated as IC50 [nM] (“-”=not measured).

In a further assay the test system is HT-29 cells. Briefly: CellTiter-Glo luminescent cell viability assay with HT-29 cells (72h incubation). Format: cell-based, human. To be noted: Homo sapiens, HT-29, HT29 cells, read-out: CTG HT29. The essentials: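 400 cells per well in DMEM/10% FCS were dosed after 24 h and kept 72 h at 37 °C, 5% CO2. ATP-based luminescence (CellTiter-Glo) normalized to DMSO and 10 μM staurosporine controls; IC50 by dose-response fit.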
Background: In ATP-based viability assays light output follows the ATP content of the culture.

The next assay has as its system hPMBC. Briefly: Chymotrypsin-like ProteasomeGlo assay in hPBMC. Format: cell-based. To be noted: Homo sapiens; read-out: Pglo hPBMC. In a few lines:
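B cells isolated from human PBMC (buffy coats, density gradient, magnetic isolation). Cells treated with compound for 105 min at 37 °C, with staurosporine and DMSO included. Chymotrypsin-like proteasome activity read by luminescence with Suc-LLVY-Glo substrate to derive IC50.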

Structures are written as SMILES.

Among the data in patent publication US20240415819A1, “MACROCYCLIC COMPOUNDS AS PROTEASOME SUBUNIT BETA TYPE-5 INHIBITORS” (Lead Discovery Center GmbH, priority 2021, published 2024) are IC50 values, retold here.

With `CC(=O)N[C@H]1CCC(=O)N(C)CCCCOc2ccc(C)c(c2)CNC(=O)[C@H](CCc2ccccc2)NC1=O` [Compound 282, N-((11S,14S)-1^4,7-dimethyl-8,12,15-trioxo-1^4-phenethyl-2-oxa-7,13,16-triaza-1(1,3)-benzenacycloheptadecaphane-11-yl)acetamide], the figures for the IC50 (in assay [1]; in the assay with HT-29 cells; with hPMBC) were above 5000 nM, 100 to 500 nM and 500 to 1000 nM, respectively.

On to `Cc1ccc2cc1CNC(=O)[C@H](CCc1ccccc1)NC(=O)[C@@H](NC(=O)C(C)(CO)CO)CC(=O)N1CCCC(CCO2)C1` (stereo partly drawn) [Compound 286, 3-hydroxy-2-(hydroxymethyl)-2-methyl-N-((9S,12S)-5^4-methyl-8,11,14-trioxo-9-phenethyl-4-oxa-7,10-diaza-1(3,1)-piperidina-5(1,3)-benzenacyclotetradecaphane-12-yl)propanamide], for which the IC50 (in assay [1]; with HT-29 cells; in the assay on hPMBC) was below 100 nM in each case.

For `CC(=O)N[C@H]1CC(=O)N2CCCC(CCOc3ccc(F)c(c3)CNC(=O)[C@H](CCc3ccccc3)NC1=O)C2` (stereo partly drawn) [Compound 205, N-((9S,12S)-5^4-fluoro-8,11,14-trioxo-9-phenethyl-4-oxa-7,10-diaza-1(3,1)-piperidina-5(1,3)-benzenacyclotetradecaphane-12-yl)acetamide], the IC50 (in assay [1]; with HT-29 cells; in the assay on hPMBC) was below 100 nM throughout.

In the case of `Cc1ccc2cc1CNC(=O)[C@H](CCc1ccccc1)NC(=O)[C@@H](NC(=O)C(C)(C)C#N)CC(=O)N1CCCC(CCO2)C1` (stereo partly drawn) [Compound 294, 2-cyano-2-methyl-N-((9S,12S)-54-methyl-8,11,14-trioxo-9-phenethyl-4-oxa-7,10-diaza-1(3,1)-piperidina-5(1,3)-benzenacyclotetradecaphane-12-yl)propanamide], the IC50 (in assay [1]; with HT-29 cells; in the assay with hPMBC) was below 100 nM in each case.

For the molecule `Cc1ccc2cc1CNC(=O)[C@H](CCc1ccccc1)NC(=O)[C@@H](NC(=O)C1CCC(C(F)(F)F)N1)CC(=O)N1CCCC(CCO2)C1` (stereo partly drawn) [Compound 157, N-((9S,12S)-5^4-methyl-8,11,14-trioxo-9-phenethyl-4-oxa-7,10-diaza-1(3,1)-piperidina-5(1,3)-benzenacyclotetradecaphane-12-yl)-5-(trifluoromethyl)pyrrolidine-2-carboxamide], the IC50 (in assay [1]; in the assay with HT-29 cells; in the assay on hPMBC) was below 100 nM throughout.

As for `Cc1ccc2cc1CNC(=O)[C@H](CCc1ccccc1)NC(=O)[C@@H](NC(=O)C1(N)CCOC1)CC(=O)N1CCCC(CCO2)C1` (stereo partly drawn) [Compound 159, 3-amino-N-((9S,12S)-5^4-methyl-8,11,14-trioxo-9-phenethyl-4-oxa-7,10-diaza-1(3,1)-piperidina-5(1,3)-benzenacyclotetradecaphane-12-yl)tetrahydrofuran-3-carboxamide], the IC50 (in assay [1]; in the assay on HT-29 cells; in the assay with hPMBC) was below 100 nM in each case.

As to `C=CS(=O)(=O)N[C@H]1CC(=O)N2CCCC(CCOc3ccc(C)c(c3)CNC(=O)[C@H](CCc3ccccc3)NC1=O)C2` (stereo partly drawn) [Compound 180, N-((9S,12S)-5^4-methyl-8,11,14-trioxo-9-phenethyl-4-oxa-7,10-diaza-1(3,1)-piperidina-5(1,3)-benzenacyclotetradecaphane-12-yl)ethenesulfonamide], the IC50 (in assay [1]; in the assay on HT-29 cells; in the assay on hPMBC) was below 100 nM each time.

As to `Cc1ccc2cc1CNC(=O)[C@H](CCc1ccccc1)NC(=O)[C@@H](NC(=O)CCc1ccc(Br)cc1)CC(=O)N1CCCC(CCO2)C1` (stereo partly drawn) [Compound 175, 3-(4-bromophenyl)-N-((9S,12S)-5^4-methyl-8,11,14-trioxo-9-phenethyl-4-oxa-7,10-diaza-1(3,1)-piperidina-5(1,3)-benzenacyclotetradecaphane-12-yl)propanamide], the IC50 (in assay [1]; with HT-29 cells; with hPMBC) was below 100 nM throughout.

For `Cc1ccc2cc1CNC(=O)[C@H](CCc1ccccc1)NC(=O)[C@@H](NC(=O)[C@@H](C)c1ccccc1)CC(=O)N1CCCC(CCO2)C1` (stereo partly drawn) [Compound 81, (2S)-N-((9S,12S)-5^4-methyl-8,11,14-trioxo-9-phenethyl-4-oxa-7,10-diaza-1(3,1)-piperidina-5(1,3)-benzenacyclotetradecaphane-12-yl)-2-phenylpropanamide], the IC50 (in assay [1]; in the assay on HT-29 cells; with hPMBC) was below 100 nM in each case.

With `Cc1ccc2cc1CNC(=O)[C@H](CCc1ccccc1)NC(=O)[C@@H](NC(=O)C(C)(C)CO)CC(=O)N1CCCC(CCO2)C1` (stereo partly drawn) [Compound 284, 3-hydroxy-2,2-dimethyl-N-((9S,12S)-5^4-methyl-8,11,14-trioxo-9-phenethyl-4-oxa-7,10-diaza-1(3,1)-piperidina-5(1,3)-benzenacyclotetradecaphane-12-yl)propanamide], the IC50 (in assay [1]; in the assay on HT-29 cells; in the assay on hPMBC) was below 100 nM throughout.

For the molecule `COCCOCCOCCOCCOCCC(=O)N[C@H]1CC(=O)N2CCCC(CCOc3ccc(C)c(c3)CNC(=O)[C@H](CCc3ccccc3)NC1=O)C2` (stereo partly drawn) [Compound 219, N-((9S,12S)-5^4-methyl-8,11,14-trioxo-9-phenethyl-4-oxa-7,10-diaza-1(3,1)-piperidina-5(1,3)-benzenacyclotetradecaphane-12-yl)-2,5,8,11,14-pentaoxaheptadecan-17-amide], the IC50 (in assay [1]; in the assay with HT-29 cells; with hPMBC) was below 100 nM throughout.

With `CC(=O)N[C@H]1CC(=O)N2CCOC(CCOc3ccc(C)c(c3)CNC(=O)[C@H](CCc3ccccc3)NC1=O)C2` (stereo partly drawn) [Compound 258, N-((9S,12S)-5^4-methyl-8,11,14-trioxo-9-phenethyl-4-oxa-7,10-diaza-1(2,4)-morpholina-5(1,3)-benzenacyclotetradecaphane-12-yl)acetamide], the IC50 (in assay [1]; with HT-29 cells; with hPMBC) was 100 to 500 nM each time.

As to `Cc1ccc2cc1CNC(=O)[C@H](CCc1ccccc1)NC(=O)[C@@H](NC(=O)CN1CCCC1)CC(=O)N1CCCC(CCO2)C1` (stereo partly drawn) [Compound 89, N-((9S,12S)-5^4-methyl-8,11,14-trioxo-9-phenethyl-4-oxa-7,10-diaza-1(3,1)-piperidina-5(1,3)-benzenacyclotetradecaphane-12-yl)-2-(pyrrolidin-1-yl)acetamide], the IC50 (in assay [1]; in the assay with HT-29 cells; in the assay with hPMBC) was below 100 nM each time.

For `Cc1ccc2cc1CNC(=O)[C@H](CCc1ccccc1)NC(=O)[C@@H](NC(=O)c1cc3cc(C(F)(F)F)ccc3n1C)CC(=O)N1CCCC(CCO2)C1` (stereo partly drawn) [Compound 87, 1-methyl-N-((9S,12S)-5^4-methyl-8,11,14-trioxo-9-phenethyl-4-oxa-7,10-diaza-1(3,1)-piperidina-5(1,3)-benzenacyclotetradecaphane-12-yl)-5-(trifluoromethyl)-1H-indole-2-carboxamide], the IC50 (in assay [1]; with HT-29 cells; in the assay on hPMBC) was below 100 nM in each case.

Regarding `Cc1ccc2cc1CNC(=O)[C@H](CCc1ccccc1)NC(=O)[C@@H](NS(=O)(=O)Cc1ccccc1)CC(=O)N1CCCC(CCO2)C1` (stereo partly drawn) [Compound 216, N-((9S,12S)-5^4-methyl-8,11,14-trioxo-9-phenethyl-4-oxa-7,10-diaza-1(3,1)-piperidina-5(1,3)-benzenacyclotetradecaphane-12-yl)-1-phenylmethanesulfonamide], the IC50 (in assay [1]; in the assay with HT-29 cells; with hPMBC) was below 100 nM in each case.

`CC(=O)N[C@H]1CCCC(=O)N2CCOC(CCOc3ccc(C)c(c3)CNC(=O)[C@H](CCc3ccccc3)NC1=O)C2` (stereo partly drawn) [Compound 186, N-((9S,12S)-5^4-methyl-8,11,16-trioxo-9-phenethyl-4-oxa-7,10-diaza-1(2,4)-morpholina-5(1,3)-benzenacyclohexadecaphane-12-yl)acetamide]: the IC50 in assay [1] is below 100 nM; with HT-29 cells, 100 to 500 nM; in the assay with hPMBC it was 100 to 500 nM.

As for `COc1ccc2cc1CNC(=O)[C@H](CCc1ccccc1)NC(=O)[C@@H](NC(C)=O)CC(=O)N1CCCC(CCO2)C1` (stereo partly drawn) [Compound 211, N-((9S,12S)-5^4-methoxy-8,11,14-trioxo-9-phenethyl-4-oxa-7,10-diaza-1(3,1)-piperidina-5(1,3)-benzenacyclotetradecaphane-12-yl)acetamide], the IC50 (in assay [1]; in the assay on HT-29 cells; in the assay with hPMBC) was 100 to 500 nM in each case.

Take `Cc1ccc2cc1CNC(=O)[C@H](CCc1ccccc1)NC(=O)[C@@H](NS(=O)(=O)CCc1ccccc1)CC(=O)N1CCCC(CCO2)C1` (stereo partly drawn) [Compound 217, N-((9S,12S)-5^4-methyl-8,11,14-trioxo-9-phenethyl-4-oxa-7,10-diaza-1(3,1)-piperidina-5(1,3)-benzenacyclotetradecaphane-12-yl)-2-phenylethane-1-sulfonamide]: the IC50 (in assay [1]; in the assay on HT-29 cells; in the assay with hPMBC) was below 100 nM each time.

On to `Cc1cc2cc(c1C)CNC(=O)[C@H](Cc1c[nH]c3ccccc13)NC(=O)CCC(=O)N1CCCC(CCO2)C1` (stereo partly drawn) [Compound 120, (9S)-9-((1H-indol-3-yl)methyl)-5^4,5^5-dimethyl-4-oxa-7,10-diaza-1(3,1)-piperidina-5(1,3)-benzenacyclotetradecaphane-8,11,14-trione], for which the IC50 was below 100 nM in assay [1], 100 to 500 nM in the assay with HT-29 cells and 100 to 500 nM in the assay with hPMBC.
